The text below walks through data of patent US20260240740A1, “MULTI-PHOTOPROTECTIVE COMPOUNDS AND USES THEREOF” (SKINOSIVE, priority 2022, published 2026).

The subject of data set [1] is pig skin. Briefly: UV protection ex vivo on pig skin by autofluorescence quenching. The following applies: for UVB protection after ethanol wash compared to the initial protection before washing: pig skin. The procedure:
UV Protection Performance of Compound #2 (OOD) UVB and UVA protections have been assessed ex vivo on pig skin by measuring the autofluorescence quenching. OOD (Compound #2), the mix of DHHB+OCR were solubilized at the same molar concentration in Dottisol (isosorbide dimethyl ether), covered 6.25 cm2 skin square and incubated 20 min or 2 hours at room temperatures, and then 7 mm skin punches were cut and placed in a black 96-well plate. UVB and UVA protections were measured after respectively an excitation at 300 nm and 355 nm and a fluorescence emission was read at 460 nm. DMSO was added on the pig skin before the reading of the residual fluorescence.
UVB and UVA protections have been assessed ex vivo on pig skin by measuring the autofluorescence quenching. BOO (Compound #5) and the mix of BEMT+OCR were solubilized at the same molar concentration in Dottisol (isosorbide dimethyl ether), covered 6.25 cm^2 skin square and incubated 4 hours at 34° C., washed or not with 10 mL Ethanol for 5 min, and then 7 mm diameter skin punches were cut and placed in a black 96-well plate. UVB and UVA protections were measured after respectively an excitation at 300 nm and 355 nm and a fluorescence emission was read at 460 nm.
UVB protection has been assessed ex vivo on pig skin by measuring the autofluorescence quenching. BOO (Compound #5), BOO-OM (Compound #6) and the mix of BEMT+OCR were solubilized at the same molar concentration in DMDA (dimethyl capramide), covered 6.25 cm2 skin square and incubated 2 hours at 34° C., washed or not with 10 mL Ethanol for 5 min, and then 7 mm diameter skin punches were cut and placed in a black 96-well plate. UVB protection was measured after respectively an excitation at 300 nm and a fluorescence emission was read at 460 nm.

Data set [2] is described as follows: Photostability after UV irradiation, absorbance spectra. It is filed as physicochemical. The settings on record: Dubdis. As for the experimental part:
(§1) Compound #2 (OOD), Univul A plus (DHHB), Octocrylene (OCR), and Univul A plus (DHHB)+Octocrylene (OCR) were dissolved in Ethanol at 1 mM and were irradiated at 2000 and 4000 J/dm2 for 1 h and 2 h in a 24-well plate, respectively, in 2 replicates (1 replicate for HPLC and 1 replicate for absorbance spectra).
(§2) Compound #4 (OHD), Univul A plus (DHHB), Octocrylene (OCR), and Univul A plus (DHHB)+Octocrylene (OCR) were dissolved in Ethanol at 1 mM and were irradiated at 2000 and 4000 J/dm2 for 1 h and 2 h in a 24-well plate, respectively, in 2 replicates (1 replicate for HPLC and 1 replicate for absorbance spectra).
(§3) Compound #5 (BOO), Tinosorb S (BEMT), and Octocrylene (OCR) were dissolved in Dubdis at 2 mM and were irradiated at 4000 J/dm2 for 2 h in a 24-well plate, respectively, in 2 replicates (1 replicate for HPLC and 1 replicate for absorbance spectra).

For data set [3], the system named is thiolated polylysine matrix. Briefly: Bio adhesion on thiolated polylysine matrix (UV absorbance at 310 nm after ethanol washes). The following applies: overnight incubation in ethanol/PBS (90%/10%), washed 10 times with ethanol. As for the experimental part: (§4) Polylysine and Polylysine enriched in SH by thiolation of primary amines using Traut's reagent were used for coating 96-well microplates. UV filters (BOO and BOO-OM) were incubated overnight under orbital agitation on the different matrices (n=3 for each condition) (uncoated wells were used as negative controls), in an ethanol/PBS (90%/10%) solution. After incubation, each microplate well was thoroughly washed 10 times with ethanol, before measuring UV absorbance. Whole UV/Visible absorbance spectrum from 220 to 1000 nm were measured in the center of each microplate well. In addition, specific UV absorbance at 310 nm was measured by matrix scan over the whole the well as a 10×10 matrix.

Data set [4] can be described thus: UV absorbance profile: λmax in solvents, FLUOstar plate reader. It is filed as physicochemical. The settings on record: for λmax double peak, first peak / λmax double peak, second peak: 50 μM; for λmax absorbance shift in UVB versus the mix of BEMT-OCR: same molar concentration, same shift in Dottisol. The procedure:
Compound #2 (OOD), Univul A plus (DHHB)+Octocrylene (OCR) were dissolved in a solvent at the same concentration (125 μM).
Compound #4 (OHD), Univul A plus (DHHB)+Octocrylene (OCR) were dissolved in a solvent at the same concentration (125 μM).
Compound #5 (BOO) and BEMT (6,6′-(6-(4-methoxyphenyl)-1,3,5-triazine-2,4-diyl)bis(3-((2-ethylhexyl)oxy)phenol)=Tinosorb S)+Octocrylene (OCR) were dissolved in a solvent at the same concentration (50 μM).
UV Absorbance Profil of Compound #6 (BOO-OM) Compound #6 (BOO-OM) and BEMT (6,6′-(6-(4-methoxyphenyl)-1,3,5-triazine-2,4-diyl)bis(3-((2-ethylhexyl)oxy)phenol)=Tinosorb S)+Octocrylene (OCR) were dissolved in a solvent at the same concentration (50 μM).

Data set [5] can be described thus: Photostability after UV irradiation, HPLC. It counts as physicochemical. The settings on record: Dubdis. The procedure: as §1, §2, §3
A short description of data set [6]: Solubility in sunscreen solvents. It counts as physicochemical. The settings on record: 50° C. The procedure:
Compound #2 (OOD) and a sunscreen solvent were weighed in a Becher. The Becher was placed on a magnetic stir plate, heated up to 50° C., and the solution was vigorously mixed with a bar magnet.
Compound #4 (OHD) and a sunscreen solvent were weighed in a Becher. The Becher was placed on a magnetic stir plate, heated up to 50° C., and the solution was vigorously mixed with a bar magnet.
Compound #5 (BOO) and a sunscreen solvent were weighed in a Becher. The Becher was placed on a magnetic stir plate, heated up to 50° C., and the solution was vigorously mixed with a bar magnet.
Compound #6 (BOO-OM) and a sunscreen solvent were weighed in a Becher. The Becher was placed on a magnetic stir plate, heated up to 50° C., and the solution was vigorously mixed with a bar magnet.

Data set [7] deals with polylysine matrix (non thiolated). Briefly: Bio adhesion on polylysine matrix (non thiolated). The following applies: overnight incubation in ethanol/PBS (90%/10%), washed 10 times with ethanol. As for the experimental part: as §4
[8] abbreviates: pig skin autofluorescence after 2 h of incubation, DMDA (dimethyl capramide), Mean +/− SD, N = 3.
Where [9] appears, read: pig skin autofluorescence after 2 h of incubation, DMDA, 10 mL Ethanol 5 min, Mean +/− SD, N = 3.
Setting [10] is: pig skin autofluorescence after 4 h of incubation, Dottisol, 10 mL Ethanol 5 min, Mean +/− SD, N = 3.
[11] abbreviates: pig skin autofluorescence after 4 h of incubation, Dottisol, Mean +/− SD, N = 3.

Some results are limits rather than exact numbers.

Take `CCCCC(CC)COc1ccc(-c2nc(-c3ccc(OC)cc3)nc(-c3ccc(OCC(CC)CCCC)cc3OCCCCCCCCNC(=O)C(C#N)=C(c3ccccc3)c3ccccc3)n2)c(O)c1` (centres unmarked) [Compound #5, 2-cyano-N-(8-(5-((2-ethylhexyl)oxy)-2-(4-(4-((2-ethylhexyl)oxy)-2-hydroxyphenyl)-6-(4-methoxyphenyl)-1,3,5-triazin-2-yl)phenoxy)octyl)-3,3-diphenylacrylamide]: in data set [1] (4 h incubation, Dottisol), the “UVA and UVB protections of the pig skin compared to the mix OCR+BEMT” value is on record as “similar”. In addition, in data set [1] (setting [8]), the “UVB Fluorescence (Ex300/Em460) No Wash” value was 42968 +/− 3131. In addition, the “UVB Fluorescence (Ex300/Em460) EtOH Wash” value in data set [1] (setting [9]) was 152417 +/− 17275. Further, in data set [1] (setting [10]), the “UVA Fluorescence (Ex355/Em460) EtOH Wash” value was 217235 +/− 4204 and the “UVB Fluorescence (Ex300/Em460) EtOH Wash” value was 205205 +/− 3116. Moreover, in data set [1] (setting [11]), the “UVA Fluorescence (Ex355/Em460) No Wash” value is listed as 49672 +/− 9882 and the “UVB Fluorescence (Ex300/Em460) No Wash” value is 49009 +/− 9100. The “UVB protection after ethanol wash compared to the initial protection before washing” value in data set [1] (2 h incubation, DMDA) is reported as “decreased three times”. Further, in data set [2] (2 mM), the “Absorbance peak, Without UV irradiation, first or only peak” value was 301 nm and the “Absorbance peak, Without UV irradiation, second peak” value came to 323 nm. Further, in data set [2] (2 mM, 2 h), the “Absorbance peak, Irradiation 4000 J/dm2, first or only peak” value worked out at 301 nm and the “Absorbance peak, Irradiation 4000 J/dm2, second peak” value is 324 nm. In data set [2] (2 mM, 2 h, listed as BOO), the “Absorbance peak, Irradiation 4000 J/dm2, second peak” value is 323 nm. Besides, the “Effect of irradiation on UV absorbance profiles and λmax” value in data set [2] (UVB and UVA range, 4000 J/dm2 for 2 hours) is given as “did not modify”. In data set [3], the “bio adhesion, UV absorbance at 310 nm” value was “did not show a bio adhesion”. In addition, in data set [4] (Dottisol), the “λmax double peak, first peak” value is on record as 301 nm and the “λmax double peak, second peak” value was 324 nm. In data set [4] (Dubdis), the “λmax double peak, first peak” value was 301 nm; the “λmax double peak, second peak” value is recorded as 323 nm; the “λmax absorbance shift in UVB versus the mix of BEMT-OCR” value came out at 10 nm. In data set [5], the “degradation observed by HPLC after irradiation” value was “No degradation”; the “purity by HPLC after irradiation” value came out at 98.13%; the “purity by HPLC, non-irradiated” value is 98.88%.

As to `CCCCC(CC)COc1ccc(-c2nc(-c3ccc(OC)cc3)nc(-c3ccc(OCC(CC)CCCC)cc3OCCCCCCCCN3C(=O)C=CC3=O)n2)c(OCCCCCCCCNC(=O)C(C#N)=C(c2ccccc2)c2ccccc2)c1` (centres unmarked) [Compound #6, 2-cyano-N-(8-(2-(4-(2-((8-(2,5-dioxo-2,5-dihydro-1H-pyrrol-1-yl)octyl)oxy)-4-((2-ethylhexyl)oxy)phenyl)-6-(4-methoxyphenyl)-1,3,5-triazin-2-yl)-5-((2-ethylhexyl)oxy)phenoxy)octyl)-3,3-diphenylacrylamide], in data set [1] (2 h incubation, DMDA), the “UVB protection of the pig skin compared to the mix OCR+BEMT” value was “similar”. Moreover, in data set [1] (conclusion from UVB protection after ethanol wash), the “bio adhesive (pig skin, ethanol wash)” value was “is bio adhesive”. For the same molecule, the “UVB Fluorescence (Ex300/Em460) No Wash” value in data set [1] (setting [8]) was 40608 +/− 3466. Besides, the “UVB Fluorescence (Ex300/Em460) EtOH Wash” value in data set [1] (setting [9]) is reported as 108875 +/− 4401. In data set [1] (2 h incubation, DMDA), the “UVB protection after ethanol wash compared to the initial protection before washing” value is on record as “reduced twice”. In addition, the values for the soluble at ratio in data set [6] (Dimethyl capramide (Spectrasolv DMDA)), in data set [6] (Dottisol (dimethyl isosorbide)) and in data set [6] (Dubdis (Diisopropyl sebacate)) were 1/10, “½” and “½”, respectively. The “bio adhesion, UV absorbance at 310 nm” value in data set [3] is given as “showed a bio adhesion”. The bioadhesion entry in data set [7] is “no bioadhesion”. The “λmax double peak, first peak” value worked out at 290 nm in data set [4] (Dottisol) and 289 nm in data set [4] (Dubdis). For the same molecule, the “λmax double peak, second peak” value in data set [4] (Dottisol) is recorded as 307 nm; in data set [4] (Dubdis) it was 309 nm. In addition, in data set [4] (Dubdis), the “λmax absorbance shift in UVB versus the mix of BEMT-OCR” value is recorded as at least 20 nm.
